Consider 3 compounds from article PMC10291551, “Characterization of a Potent and Orally Bioavailable Lys-Covalent Inhibitor of Apoptosis Protein (IAP) Antagonist” (Journal of Medicinal Chemistry, 2023).

The nature of one series: in vivo. As to conditions: Balb/c, mouse, plasma, 30 mg/kg.
Series [1] in a line: Solubility in dosing formulation. In kind it is physicochemical. As to conditions: dosing formulation of 80% PBS, 10% ethanol, 10% Tween80, aqueous with cosolvent or surfactant or cyclodextrin.
For series [2] the following is noted: pH = 7.5, T = 25 °C; cited from earlier work.
Details of series [3]: method as in PMID 31550155. As to conditions: cited from earlier work.
The next series addresses T1, cIAP1-BIR3 (Homo sapiens, UniProt Q13490).
T1 construct: from the BIR3 domains of XIAP, cIAP1, and cIAP2
The series is described as follows: DELFIA displacement assay (biotinylated AVPI peptide). In kind it is binding.

≈ marks a conversion by molar mass, not a printed value.

Consider `CN[C@@H](C)C(=O)N[C@H](C(=O)N1CCC[C@H]1C(=O)N[C@@H]1CCc2c(OS(=O)(=O)F)cccc21)C1CCCCC1` [142D6, (R)-1-((S)-1-((S)-2-cyclohexyl-2-((S)-2-(methylamino)propanamido)acetyl)pyrrolidine-2-carboxamido)-2,3-dihydro-1H-inden-4-yl sulfurofluoridate], for which the figures for the bioavailability at 24 h in the series “in vivo” (ip) and in the series “in vivo” (po) were 35% and 36%, respectively. In series [1], the solubility (usually the concentration that dissolves in the medium under given conditions) was determined as 7500 µg/mL (≈ 13.6 mM). In addition, the “solubility in aqueous buffer” value in series [2] is recorded as “up to 2 mM”.
Take `CN[C@@H](C)C(=O)N[C@H](C(=O)N1CCC[C@H]1c1nc(C(=O)c2ccc(F)cc2)cs1)C1CCCCC1` [LCL161]: in series [3], the “plasma stability t1/2” value is recorded as more than 2 h.
On to `CN[C@@H](C)C(=O)N[C@H](C(=O)N1CCC[C@H]1C(=O)N[C@@H]1CCc2c(O)cccc21)C1CCCCC1` [compound 1, (S)-1-((S)-2-cyclohexyl-2-((S)-2-(methylamino)propanamido)acetyl)-N-((R)-4-hydroxy-2,3-dihydro-1H-inden-1-yl)pyrrolidine-2-carboxamide], for which the values for the concentration for half-maximal inhibition (IC50) on cIAP1-BIR3 (after 6 h preincubation (bottom values)) and on cIAP1-BIR3 (without preincubation (top values)) were 19.3 nM and 16.6 ± 1.7 nM, respectively.
